Experimental data published in ChEMBL document CHEMBL3621158, “Synthesis of new betulinic acidpeptide conjugates and in vivo and in silico studies of the influence of peptide moieties on the triterpenoid core activity” (2015).

What was measured:
Assay type in all cases: functional
Mus musculus [1] = test: Anti-inflammatory activity in mouse model of histamine-induced paw edema assessed as inhibition of inflammation at 50 mg/kg, ip dosed 1 hr before histamine injection relative to 50 mg/kg, ip indomethacin
Mus musculus [2] = test: Anti-inflammatory activity in mouse model of histamine-induced paw edema assessed as inhibition of inflammation at 50 mg/kg, ip dosed 1 hr before histamine injection
Mus musculus [3] = test: Anti-inflammatory activity in mouse model of histamine-induced paw edema assessed as inhibition of inflammation at 20 mg/kg, po dosed 1 hr before histamine injection

Row | SMILES | inhibition in vivo at 50 mg/kg (Mus musculus [1]) | inhibition in vivo at 50 mg/kg (Mus musculus [2]) | inhibition in vivo at 20 mg/kg (Mus musculus [3])
1 | C=C(C)[C@@H]1CC[C@]2(C(=O)O)CC[C@]3(C)[C@H](CC[C@@H]4[C@@]5(C)CC[C@](O)(c6cn(C[C@H](C)N(C(=O)[C@@H](NC(=O)OC(C)(C)C)[C@@H](C)CC)C(=O)C(C)(C)NCc7ccc(OC)cc7OC)nn6)C(C)(C)[C@@H]5CC[C@]43C)[C@@H]12 | 34.5% | 14.5% | –
2 | C=C(C)[C@@H]1CC[C@]2(C(=O)O)CC[C@]3(C)[C@H](CC[C@@H]4[C@@]5(C)CC[C@@](O)(c6cn(C[C@H](C)N(C(=O)[C@@H](NC(=O)OC(C)(C)C)[C@@H](C)CC)C(=O)C(C)(C)NCc7ccc(OC)cc7OC)nn6)C(C)(C)[C@@H]5CC[C@]43C)[C@@H]12 | 74.3% | 31.2% | –
3 | C=C(C)[C@@H]1CC[C@]2(C(=O)O)CC[C@]3(C)[C@H](CC[C@@H]4[C@@]5(C)CC[C@@](O)(c6cn(CCNC(=O)C(C)(C)N(Cc7ccc(OC)cc7OC)C(=O)[C@H](Cc7c[nH]cn7)NC(=O)OC(C)(C)C)nn6)C(C)(C)[C@@H]5CC[C@]43C)[C@@H]12 | 79% | 33.4% | –
4 | C=C(C)[C@@H]1CC[C@]2(C(=O)O)CC[C@]3(C)[C@H](CC[C@@H]4[C@@]5(C)CC[C@@](O)(c6cn(C[C@H](Cc7ccccc7)N(C(=O)[C@H](CO)NC(=O)OC(C)(C)C)C(=O)C(C)(C)NCc7ccc(OC)cc7OC)nn6)C(C)(C)[C@@H]5CC[C@]43C)[C@@H]12 | 55% | 23% | –
5 | C=C(C)[C@@H]1CC[C@]2(C(=O)O)CC[C@]3(C)[C@H](CC[C@@H]4[C@@]5(C)CC[C@@](O)(c6cn(C[C@H](Cc7ccccc7)N(C(=O)[C@H](Cc7cc8ccccc8[nH]7)NC(=O)OC(C)(C)C)C(=O)C(C)(C)NCc7ccc(OC)cc7OC)nn6)C(C)(C)[C@@H]5CC[C@]43C)[C@@H]12 | 92% | 38.8% | –
6 | COc1ccc2c(c1)c(CC(=O)O)c(C)n2C(=O)c1ccc(Cl)cc1 [INDOMETHACIN] | 78% | 42% | 32.8%
7 | C#C[C@]1(O)CC[C@]2(C)[C@H]3CC[C@@H]4[C@H]5[C@H](C(=C)C)CC[C@]5(C(=O)O)CC[C@@]4(C)[C@]3(C)CC[C@H]2C1(C)C | 60% | 25.2% | –
8 | C=C(C)[C@@H]1CC[C@]2(C(=O)O)CC[C@]3(C)[C@H](CC[C@@H]4[C@@]5(C)CC[C@@](O)(c6cn(C[C@H](C)N(C(=O)[C@H](Cc7ccccc7)NC(=O)OC(C)(C)C)C(=O)C(C)(C)NCc7ccc(OC)cc7OC)nn6)C(C)(C)[C@@H]5CC[C@]43C)[C@@H]12 | 6% | 2.5% | –
